Here are results for 22 molecules from ChEMBL document CHEMBL1142345, “Synthesis and biological evaluation of alpha- and beta-6-amido derivatives of 17-cyclopropylmethyl-3, 14beta-dihydroxy-4, 5alpha-epoxymorphinan: potential alcohol-cessation agents” (J Med Chem, 2008).

For data set [1], the species on record is Homo sapiens. The data set is described as follows: Selectivity ratio of Ki for human mu opioid receptor over Ki for human delta opioid receptor.
The target in data set [2] is T1, Mu-type opioid receptor (Homo sapiens, UniProt P35372). The data set is described as follows: Displacement of [3H]DAMGO from human mu opioid receptor expressed in CHO cells. The format is cell-based. Background: Loss of bound radioactivity is the signal in a displacement assay; it reports binding, not function.
Data set [3] addresses Kappa-type opioid receptor (Homo sapiens, UniProt P41145). Description: Displacement of [3H]U69593 from human kappa opioid receptor expressed in CHO cells. The format is cell-based.
Data set [4] is filed under the species Homo sapiens. The data set is described as follows: Selectivity ratio of Ki for human mu opioid receptor over Ki for human kappa opioid receptor.
In data set [5] the target is Delta-type opioid receptor (Homo sapiens, UniProt P41143). Description: biochemical.
Description: Displacement of [3H]DPDPE from human delta opioid receptor expressed in CHO cells
Data set [6] deals with T1, Mu-type opioid receptor.
Description: Activity at human mu opioid receptor by [35S]GTPgammaS binding assay
The species named for another data set is Rattus norvegicus. Description: Inhibition of self alcohol consumption in rat using operant techniques. The format is functional.
Data set [7] is described as follows: Metabolic stability assessed as half life in human liver S9 fraction at 40 uM. The format is ADME, subcellular.
A further data set concerns the target CYP2C9 (Homo sapiens, UniProt P11712). Description: Inhibition of CYP2C9 at 10 uM. The format is ADME.
Data set [8] is described as follows: Metabolic stability assessed as half life in mouse liver microsomes at 40 uM. The format is ADME, Microsome.

The Ki is a dissociation constant, usually derived from enzyme kinetics or from competition with a known ligand. Lower therefore signals tighter binding. A word on the ED50: it is the dose that gives a 50% effect, or the effect in half of the subjects. A word on the half-life: it is the time needed for the level to fall by half in the phase considered. As usually defined, the inhibition is the change of the read-out against control, counted positive when it falls. Higher therefore signals a strong effect.

T1 sequence (P35372 whole entry): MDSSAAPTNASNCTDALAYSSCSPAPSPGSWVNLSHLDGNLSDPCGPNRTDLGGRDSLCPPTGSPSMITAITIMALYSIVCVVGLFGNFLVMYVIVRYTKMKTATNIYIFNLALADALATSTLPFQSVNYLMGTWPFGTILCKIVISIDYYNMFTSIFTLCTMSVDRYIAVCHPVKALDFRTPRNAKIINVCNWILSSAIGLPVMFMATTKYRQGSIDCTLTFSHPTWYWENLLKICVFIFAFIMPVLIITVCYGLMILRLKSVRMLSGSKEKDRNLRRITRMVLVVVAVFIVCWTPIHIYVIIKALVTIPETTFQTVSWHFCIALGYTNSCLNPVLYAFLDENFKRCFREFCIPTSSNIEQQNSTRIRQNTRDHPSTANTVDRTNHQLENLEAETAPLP
Sequence of Kappa-type opioid receptor (P41145 whole entry): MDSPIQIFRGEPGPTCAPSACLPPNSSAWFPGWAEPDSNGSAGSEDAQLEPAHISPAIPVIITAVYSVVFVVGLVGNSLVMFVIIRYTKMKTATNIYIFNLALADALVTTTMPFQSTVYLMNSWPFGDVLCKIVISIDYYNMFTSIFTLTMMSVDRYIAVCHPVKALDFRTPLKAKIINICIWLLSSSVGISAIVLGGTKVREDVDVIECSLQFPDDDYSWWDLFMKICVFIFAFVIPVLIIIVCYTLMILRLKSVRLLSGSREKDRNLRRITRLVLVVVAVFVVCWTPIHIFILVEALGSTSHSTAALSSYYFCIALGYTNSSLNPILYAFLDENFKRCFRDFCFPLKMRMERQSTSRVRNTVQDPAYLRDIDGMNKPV
Sequence of Delta-type opioid receptor (P41143 whole entry): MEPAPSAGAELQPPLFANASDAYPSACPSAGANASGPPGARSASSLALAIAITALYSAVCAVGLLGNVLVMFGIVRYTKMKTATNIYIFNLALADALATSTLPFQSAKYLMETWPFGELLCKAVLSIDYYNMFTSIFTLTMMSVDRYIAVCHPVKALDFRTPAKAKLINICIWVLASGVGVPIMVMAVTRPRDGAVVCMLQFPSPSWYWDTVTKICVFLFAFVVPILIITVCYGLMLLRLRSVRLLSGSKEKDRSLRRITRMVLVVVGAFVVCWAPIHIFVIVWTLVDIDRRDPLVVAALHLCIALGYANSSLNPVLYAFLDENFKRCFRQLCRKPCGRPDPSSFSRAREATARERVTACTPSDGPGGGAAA
Sequence of CYP2C9 (P11712 whole entry): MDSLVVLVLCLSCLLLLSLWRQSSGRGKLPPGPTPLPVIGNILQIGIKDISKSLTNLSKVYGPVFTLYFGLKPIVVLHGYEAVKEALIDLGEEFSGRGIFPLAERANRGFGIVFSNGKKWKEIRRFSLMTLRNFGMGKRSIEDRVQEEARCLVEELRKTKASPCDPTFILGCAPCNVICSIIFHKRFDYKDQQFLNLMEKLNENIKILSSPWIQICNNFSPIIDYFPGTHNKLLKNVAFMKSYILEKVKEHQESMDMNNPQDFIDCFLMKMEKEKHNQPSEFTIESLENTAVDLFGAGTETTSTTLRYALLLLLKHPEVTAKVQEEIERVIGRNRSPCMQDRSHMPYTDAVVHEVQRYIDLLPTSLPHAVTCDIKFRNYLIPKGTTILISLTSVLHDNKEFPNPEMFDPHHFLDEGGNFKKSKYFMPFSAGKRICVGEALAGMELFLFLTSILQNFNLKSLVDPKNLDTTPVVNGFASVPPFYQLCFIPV

In the case of `O=C(N[C@@H]1CC[C@@]2(O)[C@H]3Cc4ccc(O)c5c4[C@@]2(CCN3CC2CC2)[C@H]1O5)c1cccc(O)c1`, the Ratio Ki in the data set listed under Homo sapiens [1] amounted to 21; in the data set listed under Homo sapiens [4], 0.5. Also, the Ki on Mu-type opioid receptor [2] came to 130 pM; in data set [3], 60 pM; in data set [5], 2730 pM.
With `O=C(N[C@H]1CC[C@@]2(O)[C@H]3Cc4ccc(O)c5c4[C@@]2(CCN3CC2CC2)[C@H]1O5)c1ccccc1`, the Ki on Mu-type opioid receptor [2] was 210 pM; in data set [3], 780 pM.
On to `O=C(Cc1cccs1)N[C@H]1CC[C@@]2(O)[C@H]3Cc4ccc(O)c5c4[C@@]2(CCN3CC2CC2)[C@H]1O5`, for which the Ratio Ki worked out at 5.5 in the data set listed under Homo sapiens [1] and 7.2 in the data set listed under Homo sapiens [4]. The Ki turned out to be 380 pM on Mu-type opioid receptor [2], 2740 pM in [3] and 2070 pM in data set [5].
For `COc1cccc(CC(=O)N[C@@H]2CC[C@@]3(O)[C@H]4Cc5ccc(O)c6c5[C@@]3(CCN4CC3CC3)[C@H]2O6)c1` the same measures were 120, 3.5, 130 pM, 450 pM and 15800 pM.
For `Nc1ccc(C(=O)N[C@@H]2CC[C@@]3(O)[C@H]4Cc5ccc(O)c6c5[C@@]3(CCN4CC3CC3)[C@H]2O6)cc1` the same measures were 85, 0.93, 430 pM, 400 pM and 36500 pM.
Regarding `O=C(O)c1ccc(C(=O)N[C@@H]2CC[C@@]3(O)[C@H]4Cc5ccc(O)c6c5[C@@]3(CCN4CC3CC3)[C@H]2O6)cc1`, the results for the Ratio Ki in the data set filed under Homo sapiens [1] and in the data set filed under Homo sapiens [4] were 7860 and 14.9, respectively. The figures for the Ki (on Mu-type opioid receptor [2]; in [3]; in [5]) were 10100 pM, 151000 pM and 79200 pM, respectively.
As for `O=C(N[C@@H]1CC[C@@]2(O)[C@H]3Cc4ccc(O)c5c4[C@@]2(CCN3CC2CC2)[C@H]1O5)c1ccccc1`, the results for the Ki (on Mu-type opioid receptor [2]; in [3]) were 180 pM and 160 pM, respectively.
Consider `O=C(C[C@@H]1O[C@H](CO)[C@@H](O)[C@H](O)[C@H]1O)N[C@@H]1CC[C@@]2(O)[C@H]3Cc4ccc(O)c5c4[C@@]2(CCN3CC2CC2)[C@H]1O5`, for which the Ratio Ki in the data set listed under Homo sapiens [1] came out at 150; in the data set listed under Homo sapiens [4], 7. For the same molecule, the Ki is 640 pM on Mu-type opioid receptor [2], 4500 pM in data set [3] and 99000 pM in data set [5]. The molecule further had a Ke on Mu-type opioid receptor [6] of 0.37 nM.
Take `O=C(/C=C/Cc1ccccc1)N[C@@H]1CC[C@@]2(O)[C@H]3Cc4ccc(O)c5c4[C@@]2(CCN3CC2CC2)[C@H]1O5`: the figures for the Ratio Ki in the data set filed under Homo sapiens [1] and in the data set listed under Homo sapiens [4] were 100 and 20, respectively. Moreover, the results for the Ki (at Mu-type opioid receptor [2]; in [3]; in data set [5]) were 60 pM, 910 pM and 8220 pM, respectively.
For `COc1cc(OC)cc(C(=O)N[C@H]2CC[C@@]3(O)[C@H]4Cc5ccc(O)c6c5[C@@]3(CCN4CC3CC3)[C@H]2O6)c1`, the Ratio Ki in the data set listed under Homo sapiens [1] was 36; in the data set listed under Homo sapiens [4], 13. For the same molecule, the inhibition constant Ki at Mu-type opioid receptor [2] was determined as 190 pM; in data set [3], 2410 pM; in [5], 6830 pM.
In the case of `C=C1CC[C@@]2(O)[C@H]3Cc4ccc(O)c5c4[C@@]2(CCN3CC2CC2)[C@H]1O5`, the 50% effect level in the data set listed under Rattus norvegicus (ED50) was put at a dose of 0.04 mg/kg. Moreover, the half-life at 40 µM in data set [7] and in data set [8] was 20 min in each case. This molecule yielded an inhibition at 10 µM on CYP2C9 of 35.5%.
Take `COc1cccc(C(=O)N[C@H]2CC[C@@]3(O)[C@H]4Cc5ccc(O)c6c5[C@@]3(CCN4CC3CC3)[C@H]2O6)c1`: the Ratio Ki in the data set filed under Homo sapiens [1] stood at 36; in the data set listed under Homo sapiens [4] it was 4.5. Besides, the Ki at Mu-type opioid receptor [2] is 160 pM; in [3], 720 pM; in data set [5], 5820 pM. Moreover, in data set [8], the half-life at 40 µM came out at 49 min.
In the case of `COc1cc(OC)cc(C(=O)N[C@@H]2CC[C@@]3(O)[C@H]4Cc5ccc(O)c6c5[C@@]3(CCN4CC3CC3)[C@H]2O6)c1`, the Ratio Ki in the data set filed under Homo sapiens [1] was determined as 68; in the data set filed under Homo sapiens [4], 1.1. The Ki at Mu-type opioid receptor [2] was 260 pM; in [3], 290 pM; in data set [5] it was 17600 pM.
On the same counts, the results for `O=C(C[C@@H]1O[C@H](CO)[C@@H](O)[C@H](O)[C@H]1O)N[C@H]1CC[C@@]2(O)[C@H]3Cc4ccc(O)c5c4[C@@]2(CCN3CC2CC2)[C@H]1O5` are 55, 3, 670 pM, 2030 pM and 36900 pM.
For `O=C(CCc1ccccc1)N[C@@H]1CC[C@@]2(O)[C@H]3Cc4ccc(O)c5c4[C@@]2(CCN3CC2CC2)[C@H]1O5`, the Ratio Ki in the data set filed under Homo sapiens [1] worked out at 100; in the data set listed under Homo sapiens [4], 0.8. Also, the Ki at Mu-type opioid receptor [2] worked out at 120 pM; in [3], 90 pM; in data set [5], 12200 pM. Besides, on Mu-type opioid receptor [6], the Ke is 0.15 nM.
Take `O=C(Cc1cccs1)N[C@@H]1CC[C@@]2(O)[C@H]3Cc4ccc(O)c5c4[C@@]2(CCN3CC2CC2)[C@H]1O5`: the Ratio Ki in the data set listed under Homo sapiens [1] is 75; in the data set filed under Homo sapiens [4], 2.8. Moreover, the Ki on Mu-type opioid receptor [2] was found to be 430 pM; in data set [3] it was 1200 pM; in data set [5], 32400 pM. At Mu-type opioid receptor [6], this molecule registered a Ke of 0.41 nM.
With `COC(=O)c1ccc(C(=O)N[C@@H]2CC[C@@]3(O)[C@H]4Cc5ccc(O)c6c5[C@@]3(CCN4CC3CC3)[C@H]2O6)cc1`, the Ratio Ki in the data set listed under Homo sapiens [1] amounted to 130; in the data set listed under Homo sapiens [4] it was 3.5. For the same molecule, the values for the Ki (on Mu-type opioid receptor [2]; in data set [3]; in data set [5]) were 210 pM, 730 pM and 27200 pM, respectively.
For `O=C(Cc1ccccc1)N[C@@H]1CC[C@@]2(O)[C@H]3Cc4ccc(O)c5c4[C@@]2(CCN3CC2CC2)[C@H]1O5` the same measures were 180, 2.7, 160 pM, 430 pM and 28000 pM.
For the molecule `COc1ccc(CC(=O)N[C@@H]2CC[C@@]3(O)[C@H]4Cc5ccc(O)c6c5[C@@]3(CCN4CC3CC3)[C@H]2O6)cc1`, the Ratio Ki in the data set filed under Homo sapiens [1] stood at 74; in the data set filed under Homo sapiens [4], 1.6. Further, the Ki worked out at 270 pM at Mu-type opioid receptor [2], 420 pM in data set [3] and 19900 pM in [5].
On the same counts, the results for `CC(C)(C)OC(=O)Nc1ccc(C(=O)N[C@@H]2CC[C@@]3(O)[C@H]4Cc5ccc(O)c6c5[C@@]3(CCN4CC3CC3)[C@H]2O6)cc1` are 28, 0.86, 920 pM, 790 pM and 25300 pM.
Turning to `O=C(N[C@@H]1CC[C@@]2(O)[C@H]3Cc4ccc(O)c5c4[C@@]2(CCN3CC2CC2)[C@H]1O5)c1cccc([N+](=O)[O-])c1`, the Ki came to 190 pM at Mu-type opioid receptor [2] and 280 pM in [3].
For `O=C(N[C@@H]1CC[C@@]2(O)[C@H]3Cc4ccc(O)c5c4[C@@]2(CCN3CC2CC2)[C@H]1O5)c1ccccn1`, the Ratio Ki in the data set filed under Homo sapiens [1] was determined as 180; in the data set listed under Homo sapiens [4], 1.3. The Ki turned out to be 310 pM at Mu-type opioid receptor [2], 390 pM in [3] and 56300 pM in [5].
